Data: patent US9056874B2, “Complement pathway modulators and uses thereof” (NOVARTIS AG, priority 2012, dated 2015)

What follows are molecules tested against factor B (Homo sapiens, UniProt P00751) (assay: factor B inhibition assay of Biological Example 1). Settings: IC50 (nM), assay of Biological Example 1 (Table 1).
Sequence of factor B (P00751 260-764 limits assumed): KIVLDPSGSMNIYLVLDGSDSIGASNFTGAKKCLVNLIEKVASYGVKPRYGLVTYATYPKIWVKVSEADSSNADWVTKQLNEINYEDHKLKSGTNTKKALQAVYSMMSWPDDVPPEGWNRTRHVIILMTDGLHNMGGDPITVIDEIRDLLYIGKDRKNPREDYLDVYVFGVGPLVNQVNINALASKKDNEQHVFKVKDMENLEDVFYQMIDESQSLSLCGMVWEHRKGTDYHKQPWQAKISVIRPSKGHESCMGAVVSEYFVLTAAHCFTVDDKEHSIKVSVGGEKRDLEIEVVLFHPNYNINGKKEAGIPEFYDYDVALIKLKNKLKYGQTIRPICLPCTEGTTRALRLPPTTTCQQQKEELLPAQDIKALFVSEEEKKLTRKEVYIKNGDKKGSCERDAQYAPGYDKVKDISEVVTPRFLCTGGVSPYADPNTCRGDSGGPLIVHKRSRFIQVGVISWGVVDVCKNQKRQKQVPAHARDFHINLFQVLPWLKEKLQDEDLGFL
Sequence of factor B (Q91132 23-649 partner limits assumed): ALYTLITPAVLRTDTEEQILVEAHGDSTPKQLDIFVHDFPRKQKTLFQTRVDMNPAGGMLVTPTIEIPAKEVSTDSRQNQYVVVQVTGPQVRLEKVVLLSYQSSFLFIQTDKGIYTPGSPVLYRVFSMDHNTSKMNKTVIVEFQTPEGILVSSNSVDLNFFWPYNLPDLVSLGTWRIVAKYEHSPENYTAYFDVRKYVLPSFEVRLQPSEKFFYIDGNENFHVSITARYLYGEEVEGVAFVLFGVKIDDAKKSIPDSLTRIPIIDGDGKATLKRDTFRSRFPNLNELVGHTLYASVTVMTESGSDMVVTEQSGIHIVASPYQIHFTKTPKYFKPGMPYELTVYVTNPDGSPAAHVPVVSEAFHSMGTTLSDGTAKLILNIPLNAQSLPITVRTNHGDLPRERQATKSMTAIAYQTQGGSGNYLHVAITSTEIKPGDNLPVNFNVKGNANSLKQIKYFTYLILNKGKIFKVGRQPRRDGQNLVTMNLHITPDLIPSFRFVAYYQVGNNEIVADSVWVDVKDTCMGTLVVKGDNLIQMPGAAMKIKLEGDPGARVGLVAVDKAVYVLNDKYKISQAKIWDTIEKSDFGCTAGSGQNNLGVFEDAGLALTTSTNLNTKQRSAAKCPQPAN
Sequence of factor B (Q91132 733-984 partner limits assumed): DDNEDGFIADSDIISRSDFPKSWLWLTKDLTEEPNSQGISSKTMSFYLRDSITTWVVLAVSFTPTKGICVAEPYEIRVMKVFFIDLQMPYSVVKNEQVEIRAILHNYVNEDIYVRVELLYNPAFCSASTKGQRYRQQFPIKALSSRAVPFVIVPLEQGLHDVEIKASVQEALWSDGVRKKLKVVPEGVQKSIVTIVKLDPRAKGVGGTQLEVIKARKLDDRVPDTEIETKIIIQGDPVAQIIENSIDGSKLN
Sequence of factor B (Q91132 1264-1642 partner limits assumed): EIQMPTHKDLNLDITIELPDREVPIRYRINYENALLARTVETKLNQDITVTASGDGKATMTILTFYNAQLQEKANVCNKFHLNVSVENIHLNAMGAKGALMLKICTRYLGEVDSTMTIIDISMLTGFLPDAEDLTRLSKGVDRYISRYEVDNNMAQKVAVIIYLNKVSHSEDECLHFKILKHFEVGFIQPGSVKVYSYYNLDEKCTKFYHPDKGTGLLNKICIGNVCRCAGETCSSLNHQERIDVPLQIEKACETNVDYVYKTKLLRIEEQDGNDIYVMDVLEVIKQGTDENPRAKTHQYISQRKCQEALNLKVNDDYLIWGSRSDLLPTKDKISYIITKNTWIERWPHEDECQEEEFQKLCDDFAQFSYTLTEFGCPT
Type: biochemical
Parameters: CVF-Bb complex prepared from purified cobra venom factor (1 μM), recombinant human complement factor B; made in house; host or cells: drosophila cells (factor B); E. coli (factor D used to form the complex)
In the case of `COC(c1nc2cc(C#N)ccc2[nH]1)c1c(C)cc(C)c2[nH]ccc12` (racemic) [Example 68-B, (±)-2-((5,7-Dimethyl-1H-indol-4-yl)(methoxy)methyl)-1H-benzo[d]imidazole-5-carbonitrile], the IC50 is reported as 200 nM. In the case of `Cc1cc(C)c2[nH]ccc2c1C(OCC(=O)O)c1nc2cc(C#N)ccc2[nH]1` (racemic) [Example 69, (±)-2-((5-cyano-1H-benzo[d]imidazol-2-yl)(5,7-dimethyl-1H-indol-4-yl)methoxy)acetic acid], the IC50 is reported as 3630 nM. Molecule `CCOC(c1nc2cc(C#N)ccc2[nH]1)c1c(C)cc(C)c2[nH]ccc12` (racemic) [Example 73, (±)-2-((5,7-Dimethyl-1H-indol-4-yl)(ethoxy)methyl)-1H-benzo[d]imidazole-5-carbonitrile] has an IC50 of 1270 nM. `COCCOC(c1nc2cc(C#N)ccc2[nH]1)c1c(C)cc(C)c2[nH]ccc12` (racemic) [Example 74, (±)-2-((5,7-Dimethyl-1H-indol-4-yl)(2-methoxyethoxy)methyl)benzo[d]imidazole-5-carbonitrile] was tested, and the IC50 was 1870 nM. `Cc1cc(C)c2[nH]ccc2c1C(C)c1nc2cc(C#N)ccc2[nH]1` (racemic) [Example 75-D, (±)-2-(1-(5,7-Dimethyl-1H-indol-4-yl)ethyl)-1H-benzo[d]imidazole-5-carbonitrile] gave an IC50 of 470 nM. `Cc1cc2c(c3cc[nH]c13)C(c1nc3cc(C#N)ccc3[nH]1)(C(F)(F)F)OC2=O` (racemic) [Example 81-D, (±)-2-(5-Methyl-3-oxo-1-(trifluoromethyl)-3,6-dihydro-1H-furo[3,4-e]indol-1-yl)-1H-benzo[d]imidazole-5-carbonitrile] was tested, and the IC50 was 2930 nM. Work on `Cc1cc(CO)c(C(O)(c2nc3cc(C#N)ccc3[nH]2)C(F)(F)F)c2cc[nH]c12` (racemic) [Example 81-E, (±)-2-(2,2,2-Trifluoro-1-hydroxy-1-(5-(hydroxymethyl)-7-methyl-1H-indol-4-yl)ethyl)-1H-benzo[d]imidazole-5-carbonitrile] yielded an IC50 of 1640 nM. Molecule `CNC(=O)c1cc(C)c2[nH]ccc2c1C(O)(c1nc2cc(C#N)ccc2[nH]1)C(F)(F)F` (racemic) [Example 82, (±)-4-(1-(5-cyano-1H-benzo[d]imidazol-2-yl)-2,2,2-trifluoro-1-hydroxyethyl)-N,7-dimethyl-1H-indole-5-carboxamide] has an IC50 of 71900 nM. `Cc1cc(C(F)(F)F)c(C(C)(O)c2nc3cc(C#N)ccc3[nH]2)c2cc[nH]c12` (racemic) [Example 83-B, (±)-2-(1-hydroxy-1-(7-methyl-5-(trifluoromethyl)-1H-indol-4-yl)ethyl)-1H-benzo[d]imidazole-5-carbonitrile] was tested, and the IC50 was 1440 nM. In the case of `CCc1cc(C)c2[nH]cc(Cl)c2c1C(O)c1nc2cc(C#N)ccc2[nH]1` (racemic) [Example 87, (±)-2-((3-Chloro-5-ethyl-7-methyl-1H-indol-4-yl)(hydroxy)methyl)-1H-benzo[d]imidazole-5-carbonitrile], the IC50 is reported as 380 nM. `Cc1cc(C)c2[nH]cc(C)c2c1C(O)c1nc2cc(C#N)ccc2[nH]1` (racemic) [Example 89-D, (±)-2-(Hydroxy(3,5,7-trimethyl-1H-indol-4-yl)methyl)-1H-benzo[d]imidazole-5-carbonitrile] showed an IC50 of 2320 nM. Molecule `CCc1cc(C)c2[nH]cc(C(O)C(F)(F)F)c2c1Cc1nc2cc(C#N)ccc2[nH]1` (racemic) [Example 92-B, (±)-2-((5-Ethyl-7-methyl-3-(2,2,2-trifluoro-1-hydroxyethyl)-1H-indol-4-yl)methyl)-1H-benzo[d]imidazole-5-carbonitrile] has an IC50 of 9750 nM. Work on `CNC(c1nc2cc(C#N)ccc2[nH]1)c1c(C)cc(C)c2[nH]ccc12` (racemic) [Example 98-B, (±)-2-((5,7-Dimethyl-1H-indol-4-yl)(methylamino)methyl)-1H-benzo[d]imidazole-5-carbonitrile] yielded an IC50 of 560 nM. `Cc1cc(C)c2[nH]ccc2c1C(NS(C)(=O)=O)c1nc2cc(C#N)ccc2[nH]1` (racemic) [Example 99-B, (±)-N-((5-cyano-1H-benzo[d]imidazol-2-yl)(5,7-dimethyl-1H-indol-4-yl)methyl)methanesulfonamide] gave an IC50 of 750 nM. Work on `CC(=O)NC(c1nc2cc(C#N)ccc2[nH]1)c1c(C)cc(C)c2[nH]ccc12` (racemic) [Example 100, (±)-N-((5-cyano-1H-benzo[d]imidazol-2-yl)(5,7-dimethyl-1H-indol-4-yl)methyl)acetamide] yielded an IC50 of 1120 nM. With `CNC(C)(c1nc2cc(C#N)ccc2[nH]1)c1c(C)cc(C)c2[nH]ccc12` (racemic) [Example 103-E, (±)-2-(1-(5,7-Dimethyl-1H-indol-4-yl)-1-(methylamino)ethyl)-1H-benzo[d]imidazole-5-carbonitrile] the IC50 was 50 nM. `Cc1cc(C)c2[nH]ccc2c1C(C)(c1nc2cc(C#N)ccc2[nH]1)N(C)C` (racemic) [Example 104-B, (±)-2-(1-(5,7-dimethyl-1H-indol-4-yl)-1-(dimethylamino)ethyl)-1H-benzo[d]imidazole-5-carbonitrile] gave an IC50 of 260 nM. `Cc1cc(C)c2[nH]ccc2c1C(CO)c1nc2cc(C#N)ccc2[nH]1` (racemic) [Example 108-E, (±)-2-(1-(5,7-Dimethyl-1H-indol-4-yl)-2-hydroxyethyl)-1H-benzo[d]imidazole-5-carbonitrile] gave an IC50 of 80 nM. `CCc1cc(C)c2[nH]ccc2c1C(OCC(=O)O)(c1nc2cc(C#N)ccc2[nH]1)C(F)(F)F` (racemic) [Example 109-B, (±)-2-(1-(5-cyano-1H-benzo[d]imidazol-2-yl)-1-(5-ethyl-7-methyl-1H-indol-4-yl)-2,2,2-trifluoroethoxy)acetic acid] gave an IC50 of 30 nM. `CCc1cc(C)c2[nH]cc(-c3ccccc3)c2c1C(O)c1nc2cc(C#N)ccc2[nH]1` (racemic) [Example 117-F, (±)-2-((5-Ethyl-7-methyl-3-phenyl-1H-indol-4-yl)(hydroxy)methyl)-1H-benzo[d]imidazole-5-carbonitrile] gave an IC50 of 70 nM. `Cc1cc(C)c2[nH]cc(-c3ccn[nH]3)c2c1C(O)c1nc2cc(C#N)ccc2[nH]1` (racemic) [Example 121-D, (±)-2-((5,7-Dimethyl-3-(1H-pyrazol-5-yl)-1H-indol-4-yl)(hydroxy)methyl)-1H-benzo[d]imidazole-5-carbonitrile] showed an IC50 of 480 nM. `COc1cc(C)c2[nH]ccc2c1C(OCC(=O)O)(c1nc2cc(C#N)ccc2o1)C(F)(F)F` (racemic) [Example 129-B, (±)-2-(1-(5-cyanobenzo[d]oxazol-2-yl)-2,2,2-trifluoro-1-(5-methoxy-7-methyl-1H-indol-4-yl)ethoxy)acetic acid] showed an IC50 of 7860 nM. Molecule `COc1cc(C)c2[nH]ccc2c1C(N)(c1nc2cc(C#N)ccc2o1)C(F)(F)F` (racemic) [Example 130-B, (±)-2-(1-Amino-2,2,2-trifluoro-1-(5-methoxy-7-methyl-1H-indol-4-yl)ethyl)benzo[d]oxazole-5-carbonitrile] has an IC50 of 20 nM. In the case of `COc1cc(C)c2[nH]ccc2c1C(O)c1nc2ccc(C#N)cc2s1` (racemic) [Example 132-B, (±)-2-(hydroxy(5-methoxy-7-methyl-1H-indol-4-yl)methyl)benzo[d]thiazole-6-carbonitrile], the IC50 is reported as 70 nM. `COc1cc(C)c2[nH]ccc2c1C(O)c1cc2ccc(C#N)cc2o1` (racemic) [Example 133-B, (±)-2-(hydroxy(5-methoxy-7-methyl-1H-indol-4-yl)methyl)benzofuran-6-carbonitrile] was tested, and the IC50 was 100 nM. `COc1cc(C)c2[nH]ccc2c1C(O)c1cc2cc(C#N)ccc2o1` (racemic) [Example 134, (±)-2-(hydroxy(5-methoxy-7-methyl-1H-indol-4-yl)methyl)benzofuran-5-carbonitrile] was tested, and the IC50 was 90 nM. Molecule `COc1cc(C)c2[nH]ccc2c1C(O)c1cc2ccc(C#N)cc2[nH]1` (racemic) [Example 135-C, (±)-2-(hydroxy(5-methoxy-7-methyl-1H-indol-4-yl)methyl)-1H-indole-6-carbonitrile] has an IC50 of 20 nM. In the case of `COc1cc(C)c2[nH]ccc2c1C(O)c1cc2cc(C#N)ccc2[nH]1` (racemic) [Example 136, (±)-2-(hydroxy(5-methoxy-7-methyl-1H-indol-4-yl)methyl)-1H-indole-5-carbonitrile], the IC50 is reported as 20 nM. With `Cc1cc(S(C)(=O)=O)c(C(C)(O)c2nc3cc(C#N)ccc3[nH]2)c2cc[nH]c12` (single isomer, unassigned) [11-C b) (tr = 3 min), (+) or (−)-2-(1-hydroxy-1-(7-methyl-5-(methylsulfonyl)-1H-indol-4-yl)ethyl)-1H-benzo[d]imidazole-5-carbonitrile] the IC50 was 90 nM. `Cc1cc(S(C)(=O)=O)c(C(C)(O)c2nc3cc(C#N)ccc3[nH]2)c2cc[nH]c12` (single isomer, unassigned) [11-C b) (tr = 4.2 min), (−) or (+)-2-(1-hydroxy-1-(7-methyl-5-(methylsulfonyl)-1H-indol-4-yl)ethyl)-1H-benzo[d]imidazole-5-carbonitrile] showed an IC50 of 1020 nM. In the case of `Cc1cc(S(C)(=O)=O)c(C(N)c2nc3cc(C#N)ccc3[nH]2)c2cc[nH]c12` (single isomer, unassigned) [18-D (+), 2-(amino(7-methyl-5-(methylsulfonyl)-1H-indol-4-yl)methyl)-1H-benzo[d]imidazole-5-carbonitrile], the IC50 is reported as 1240 nM. In the case of `Cc1cc(S(C)(=O)=O)c(C(N)c2nc3cc(C#N)ccc3[nH]2)c2cc[nH]c12` (single isomer, unassigned) [18-D (−), 2-(amino(7-methyl-5-(methylsulfonyl)-1H-indol-4-yl)methyl)-1H-benzo[d]imidazole-5-carbonitrile], the IC50 is reported as 150 nM. `CCOc1cc(C)c2[nH]ccc2c1C(O)(c1nc2cc(C#N)ccc2[nH]1)C(F)(F)F` (single isomer, unassigned) [33-C b) (tr = 3 min), 2-(1-(5-ethoxy-7-methyl-1H-indol-4-yl)-2,2,2-trifluoro-1-hydroxyethyl)-1H-benzo[d]imidazole-5-carbonitrile] showed an IC50 of 490 nM.
